Marks after values point to notes of the source that are not given here.
How the values were obtained:
[1] = biological target: T1, cathepsin B (human Liver) (Homo sapiens, UniProt P07858); assay: Inhibition constant (Ki) of the compounds to cathepsin B; assay type: biochemical
T1 construct: from tissue; host or cells: human liver
Experimental: Determination of the Km and Vmax of Cathepsin B for Z-Arg-Arg-AMC
The solution of cathepsin B (human Liver) (50 μL, 2 nM) in assay buffer used above was mixed with 50 μL of solution of substrate Z-Arg-Arg-AMC in the assay buffer at different concentrations ([S]) (25 μM, 50 μM, 100 μM, 500 μM and 1 mM). The mixture was incubated at 37° C. and the fluorescence of the liberated aminomethylcoumarin at 460 nM using 355 nm excitation was measured at predetermined time points (0, 2, 4, 6, 8, and 10 minutes). The fluorescence intensity was plotted versus time and the reaction rates (v0) were calculated as the slope of the trend lines obtained by liner regression. Km and maximum reaction rate (Vmax-obs) was determined from the equation v0=Vmax[S]/(Km+[S]) and solved by nonlinear regression using GraphPad Prism 5. All measurements were in biological triplicate.
Determination of the Inhibition Constant (Ki) of the Compounds to Cathepsin B
The cathepsin B (human Liver) in assay buffer (25 μL) was mixed with the conjugate (25 μL) in 96-well plate. After the solution was mixed, the Z-Arg-Arg-AMC in assay buffer (50 μL) was added to the well, yielding a final cathepsin B concentration of 1 nM, conjugate concentration ([C]) of 15 nM or 5 μM, and substrate concentration ([S]) of 25 μM, 50 μM, 100 μM, 500 μM and 1 mM. The mixture was incubated at 37° C. and the fluorescence of the liberated aminomethylcoumarin at 460 nM using 355 nm excitation was measured at predetermined time points (0, 2, 4, 6, 8, and 10 minutes). The fluorescence intensity was plotted versus time with observed reaction rates (v0-obs) calculated as the slope of the trend lines obtained by liner regression. The observed rate constant (Kobs) and observed maximum reaction rate (Vmax-obs) was determined from the equation v0-obs=Vmax-obs [S]/(Kobs+[S]) and solved by nonlinear regression using GraphPad Prism 5. The Ki was calculated from the equation Kobs=Km (1+[C]/Ki). All measurements were in biological triplicate.

[2] = Distribution coefficient (Log D7.4) of the conjugates; assay type: physicochemical; settings: determined by HPLC analysis
[3] = as above; assay type: physicochemical
Experimental: Distribution Coefficient (Log D7.4) of the Conjugates The distribution coefficient was determined for each ^177Lu-labeled conjugate. In a 1.5 mL centrifuge tube, 0.5 mL of 1-octanol was added to 0.5 mL of PBS (pH 7.4) containing the radiolabeled peptide (500,000 cpm). The solution was vigorously vortexed for 2 minutes at room temperature and subsequently centrifuged to yield two immiscible layers. The radioactivity of the aliquots (100 μL) taken from each layer were quantified by the gamma counter and the Log D7.4 for each conjugates was calculated.

HT-29 cells [4] = assay: HT-29 cell efflux study; assay type: cell-based, human; settings: at 24 hours
Experimental: The HT-29 Cell Efflux Studies
The ^177Lu radioconjugate was added to a sterilized 1.5 mL microcentrifuge tube containing HT-29 cells ˜1×10^6) suspended in 300 μL of cell culture medium, yielding a final radioactivity concentration of 100,000 cpm/100 μL, and was incubated for 2 hours at 37° C. After the removal of the culture medium, the cells were washed with fresh medium (5×500 μL) followed by the addition of 500 μL of fresh medium for the efflux assay. At 0, 1, 2, 4, 8, and 24 hour time interval, fresh medium (500 μL) was added to the tube to replace the old medium which was harvested for quantitative analysis of the effluxed radioactivity using a gamma counter. The cells were lysed with a 10% aqueous SDS solution at 24 hour to quantify the remaining internalized radioactivity. The effluxed fraction is expressed as a percentage of the total radioactivity added to the tube, which is the sum of the effluxed and internalized fractions obtained from the study.

HT-29 cells [5] = assay: Intracellular trapping of the radioconjugates in living HT-29 cells (GPC, SDS-PAGE); assay type: cell-based, human; settings: for intracellular adduct formation (in words): live HT-29 cells, GPC and SDS-PAGE
Experimental: Intracellular Trapping of the Radioconjugates in Living HT-29 Cells
To the HT-29 cells (1×10^6/well) seeded in 6-well plates was added the radioconjugates (0.74 MBq, 20 μCi) in 1 mL of cell culture medium. The cells were incubated at 37° C. for 4 hours and the medium was removed by vacuum followed washing with PBS (2×2 mL). The cells (˜3×10^6) were trypsinized and combined in microcentrifuge. The RIPA buffer (100 μL) containing Halttmprotease inhibitor (100×, 1 μL) was added to the cell pellet and vigorously vortexed for 1 minute. The suspension was incubated on ice for 15 minutes and centrifuged to remove the pellet. The supernatant (80 μL) was equally divided into two portions. The first portion (40 μL) was directly analyzed by radioactive-GPC with a flow rate of 0.6 mL/minute (40% ACN in PBS containing 0.1% sodium azide). The second portion (40 μL) of the cell lysate was mixed with Novex Tris-Glycine SDS sample buffer (2×) (40 μL) and incubated for another 15 minutes. The mixture (30 μL) was loaded onto a Novex 16% tris-glycine gel and analyzed by SDS-PAGE at 110 V for 90 minutes. The autoradiograph of the SDS-PAGE was performed as described above.

PC-3 tumor [6] = settings: mouse, in vivo
PC-3 tumor [7] = assay: Autoradiography of SDS-PAGE of tissue lysates from PC-3 tumor bearing mice; assay type: in vivo; settings: liver, pancreas, kidney at 24 and 72 hours post-injection
PC-3 cells [8] = assay: Efflux study in PC-3 cells; assay type: cell-based, human; settings: over a 24 hour time period
PC-3 cells [9] = assay: Cellular adduct study (SDS-PAGE of cellular lysates); assay type: cell-based, human
CatB = CatB (Homo sapiens, UniProt P07858); assay: CatB inhibition of GRPR-targeted agents; assay type: biochemical
Experimental: The Inhibition of Cathepsin B Activity by the Conjugates The phosphate buffer (0.1 M, pH=5.8) containing EDTA (1 mM), DTT (2.7 mM), and Brij®35 (0.03%) was prepared before the assay. […] The solution of cathepsin B (human Liver) in assay buffer (50 μL, 0.544 nM) was added to the mixture which was further incubated at 37° C. for 20 minutes. The fluorescence of the liberated aminomethylcoumarin at 460 nM using 355 nm excitation was measured and the IC50 of the cathepsin B inhibition versus the samples without the inhibitor was determined by nonlinear regression using GraphPad Prism 5.

[10] = biological target: T1, cathepsin B (human Liver); assay: Cathepsin B binding of the radioconjugates (autoradiographic SDS-PAGE); settings: 2 hours
Experimental: Cathepsin B Binding of the Radioconjugates This procedure uses the same solutions as described above. The cathepsin B (human Liver)(3 nM, 10 μL) in storing buffer was added to the solution of the radioconjugate (500,000 cpm) in 40 μL of binding assay buffer and kept on ice for 2 hours. An aliquot (25 μL) of the solution was mixed with Novex Tris-Glycine SDS sample buffer (2×) (25 μL) and incubated for a further 10 minutes. The mixtures (20 μL) were loaded onto a Novex 16% tris-glycine gel and analyzed by SDS-PAGE at 110 V for 90 minutes. The autoradiograph of the SDS-PAGE was performed as described above.

Row | logD7.4 [2] | inhibition of catB (in words) (CatB) | SMILES | CatB K1 [1] | efflux (HT-29 cells [4]) | intracellular adduct formation (in words) (HT-29 cells [5]) | logD7.4 ([3]; GRPR-targeted agents) | tumor retention (PC-3 tumor [6]) | adduct formation in tissue lysates (in words) (PC-3 tumor [7]) | reduction in efflux compared to the analogous control (PC-3 cells [8]) | cellular adducts (in words) (PC-3 cells [9]) | other results
1 | 2.08 ± 0.08^a |  | Cc1cc(C)c(C(=O)OCC(=O)[C@H](CCCCN)NC(=O)[C@H](Cc2ccccc2)NC(=O)OCc2ccccc2)c(C)c1 [Compound 1a] |  |  |  |  |  |  |  |  | Ki ([1]; read-out: CatB K1): 23 ± 1 nM
2 | 2.51 ± 0.02^a |  | NCCCCC(NC(=O)C(Cc1ccccc1)NC(=O)OCc1ccccc1)C(=O)NCCc1ccccc1 (stereo not shown) [Compound 1b] | ni^c |  |  |  |  |  |  |  | 
3 |  |  | Cc1cc(O)cc(C)c1C[C@H](NC(=O)[C@@H]1CCCN1C(=O)[C@H](CCCNC(=N)N)NC(=O)[C@H](CCCNC(=N)N)N(C)C(=O)[C@@H]1CCCN1C(=O)[C@H](CCCCN)NC(=O)CCNC(=O)[C@H](Cc1cn(CCOCCOCCOCC(=O)NCCCC[C@H](NC(=O)[C@H](Cc2ccccc2)NC(=O)OCc2ccccc2)C(=O)NCCc2ccccc2)nn1)NC(=O)CN1CCN(CC(=O)O)CCN(CC(=O)O)CCN(CC(=O)O)CC1)C(=O)N[C@H](C(=O)N[C@@H](CC(C)C)C(=O)O)C(C)(C)C [Compound 3a] | ni | 66% | no adduct formation |  |  |  |  |  | Ki and inhibition IC50 to CatB (in words) [1]: did not demonstrate any inhibition; logD7.4 ([3]; determined by radiometric analysis, 177Lu-labeled conjugate): −1.56 ± 0.07^b
4 |  | low nanomolar inhibition | CC(C)C[C@H](NC(=O)C1OC1C(=O)O)C(=O)N[C@@H](CCCNC(=N)N)C(=O)NCCn1cc(C[C@H](NC(=O)CN2CCN(CC(=O)O)CCN(CC(=O)O)CCN(CC(=O)O)CC2)C(=O)NCCOCCOCCOCCOCCC(=O)N[C@H](Cc2ccccc2)C(=O)N[C@@H](CCC(N)=O)C(=O)N[C@@H](Cc2c[nH]c3ccccc23)C(=O)N[C@@H](C)C(=O)N[C@H](C(=O)NCC(=O)N[C@@H](Cc2c[nH]cn2)C(=O)N[C@@H](CC(C)C)[C@@H](O)CC(=O)N[C@H](CC(C)C)C(N)=O)C(C)C)nn1 (stereo partly shown) [^177Lu-A-ANT, metal not drawn] |  |  |  | −2.3 ± 0.2 | 32% | formation of adducts | 5% | cellular adducts are observed | 
5 |  | low nanomolar inhibition | CSCC[C@H](NC(=O)[C@H](CC(C)C)NC(=O)[C@H](Cc1c[nH]cn1)NC(=O)CNC(=O)[C@@H](NC(=O)[C@H](C)NC(=O)[C@H](Cc1c[nH]c2ccccc12)NC(=O)[C@H](CCC(N)=O)NC(=O)CCOCCOCCOCCOCCNC(=O)[C@H](Cc1cn(CCNC(=O)[C@H](CCCNC(=N)N)NC(=O)[C@H](CC(C)C)NC(=O)C2OC2C(=O)O)nn1)NC(=O)CN1CCN(CC(=O)O)CCN(CC(=O)O)CCN(CC(=O)O)CC1)C(C)C)C(N)=O (stereo partly shown) [^177Lu-A-AG, metal not drawn] |  |  |  | −3.1 ± 0.1 | 62% | formation of adducts | ~20% | cellular adducts are observed | 
6 |  |  | Cc1cc(C)c(C(=O)OCC(=O)[C@H](CCCCNC(=O)COCCOCCOCCn2cc(C[C@H](NC(=O)CN3CCN(CC(=O)O)CCN(CC(=O)O)CCN(CC(=O)O)CC3)C(=O)NCCC(=O)N[C@@H](CCCCN)C(=O)N3CCC[C@H]3C(=O)N(C)[C@@H](CCCNC(=N)N)C(=O)N[C@@H](CCCNC(=N)N)C(=O)N3CCC[C@H]3C(=O)N[C@@H](Cc3c(C)cc(O)cc3C)C(=O)N[C@H](C(=O)N[C@@H](CC(C)C)C(=O)O)C(C)(C)C)nn2)NC(=O)[C@H](Cc2ccccc2)NC(=O)OCc2ccccc2)c(C)c1 [Compound 2c] |  | 36% | multiple macromolecule adducts formed |  |  |  |  |  | percentage of macromolecular adducts with respect to total intracellular activity (HT-29 cells [5]; GPC profile, HT-29 cells, 4 hours incubation): 61%; adduct formation with CatB (in words) [10]: adduct formation
